Assays:
HSV-1 IE promoters = test: ChIP of H3K9me3 / histone H3 on HSV-1 IE promoters in HeLa cells; type: cell-based; conditions: 2 mM DMOG 4 hours before infection; FIG. 8
Protocol: Hela cells were pretreated with 2 mM DMOG for 4 hours prior to infection. Cells were infected with 0.1 pfu/cell of HSV-1 for 3 hrs. Standard Chromatin-Immunoprecipitation procedures were preformed (Liang, Vogel, Narayanan, Peng & Kristie, 2009, Nature Med 15:1312-17) to determine the levels of total histone H3 or tri-methylated histone H3 associated with the indicated viral IE promoters.

HSV-1 [1] = test: IE mRNA levels in explanted latently infected ganglia; type: cell-based, mice; conditions: 7 hours post explant; ICP4 and ICP27 mRNA; FIG. 12
Protocol: Total RNA was isolated and subjected to reverse transcription. The resulting cDNAs were analyzed for viral Immediate Early ICP4 and ICP27 mRNAs relative to an infected cell standard by nested or qPCR. In accordance with an embodiment of the invention, DMOG reduces the levels of viral mRNAs in explanted/reactivated ganglia.
IE gene transcription is repressed in explanted latently infected sensory ganglia in the presence of DMOG (FIG. 12). Total RNA was extracted from ganglia of latently infected mice explanted in the presence of control ACV or DMOG for 7 hours. Random primed cDNA was produced from total RNA using RNAqueous-4PCR and RETROscript (Ambion, Austin, Tex., USA) according to the manufacturer's recommendations. cDNAs were quantitated by nested PCR or qPCR using primers specific for the HSV-1 ICP4 and ICP27 IE mRNAs.

HSV-1 [2] = type: cell-based, Balb/c mice; design: reduction of viral reactivation (viral yield): unit of the concentration uncertain
Protocol: FIG. 18 is a dot plot showing latently infected ganglia that were explanted in the presence of DMSO, ACV (100 mM), or ML324 (50 mM) for 48 hrs. Viral yields were determined from one half of each ganglia at 48 hrs (DMSO, ACV, ML324) and from the other half of each ganglia after drug reversal for an additional 72 hrs (ACV-R, ML324-R) [Wilcoxon matched pairs signed rank test, ACV vs ACV-R n=8, ML324 vs ML324-R n=10]. Data are means±SEM.
FIG. 19 is a dot plot showing viral yields from HSV-1 latently infected trigeminal ganglia that were explanted in the presence of DMSO, or 2 mM DMOG or 50 mM ML324 for 48 hours (DMSO versus DMOG: P=0.0015, Wilcoxon matched-pairs signed rank test; n=12; DMSO versus ML324: P<0.0001; n=20). Data are means±SEM.
Viral yields decrease from HSV-1 latently infected ganglia explanted in the presence of LSD1 or JMJD2 inhibitors (FIG. 11). Balb/c mice were infected with 5×10^6 PFU HSV-1 (strain F) per eye after corneal scarification. Latently infected mice were sacrificed 45 days post clearance of the primary infection and trigeminal ganglia were rapidly explanted into culture in the presence of 2 mM DMOG, 2 mM TCP, or control (DMSO or ACV, acyclovir) for 48 hours. Post explant incubation, the ganglia were homogenized and briefly sonicated. The reactivated viral yield of each ganglia was determined by titering the clarified supernatant on Vero cells. Statistical comparisons were made using Wilcoxon signed rank test (paired ganglia) with a statistical significance of <0.05. Each data point was the result of a single ganglia divided and treated in the presence and absence of DMSO and DMOG or DMSO and TCP. Therefore, a Wilcoxon signed rank test was used to assess differences between each treated and untreated sample. The significant difference between DMSO control and DMOG was p=0.0018. This test used an exact p-value for small sample sizes with an a level of 0.05. n=20. Analyses were made using Prism (V5.0a) and are expressed as the mean+/−s.e.m.

HSV-1 [3] = test: HSV-1 lytic viral yields from HFF cells; type: cell-based; conditions: HFF pretreated 5 hrs, HSV-1 0.1 pfu/cell 24 hrs; FIG. 10
Protocol: FIG. 14 is a bar graph showing viral yields from HFF cells treated with DMSO or ML324 for 3 hours and infected with HSV-1 (0.1 PFUper cell) for 24 hours in the presence of the drugs. *P<0.004, one-way ANOVA with Dunnett's post hoc test. Data are means±SEM.
HSV-1 lytic viral yields decrease in the presence of DMOG (FIG. 10). HFF cells were pretreated with DMSO control or JMJD2 inhibitor DMOG for 5 hrs and infected with 0.1 pfu/cell of HSV-1 for 24 hrs in the presence of DMSO or DMOG. The yield of infectious virus derived from each treatment were determined by tittering on Vero cells according to standard procedures.

HSV-1 [4] = test: HSV-1 IE mRNA levels in infected HFF cells; type: cell-based; conditions: increasing concentration of DMOG, HFF, FIG. 7
Protocol: FIG. 13 is a line graph showing viral IE (ICP4, ICP27, and ICP22) and control (S15, Sp1, and TBP) mRNA levels in HFF cells treated with DMSO or the indicated concentrations of ML324 for 3 hours and infected with HSV-1 (0.1 PFU per cell) for 3 hours. *P<0.0001, two-way ANOVA with Tukey's post hoc test. Data are means±SEM.
HSV-1 IE mRNA levels of ICP4 and ICP27 decrease in cells infected in the presence of DMOG. Human foreskin fibroblast (HFF) cells were infected with HSV-1 at 0.1 PFU/cell for 3 hrs in the presence of increasing concentrations of DMOG. Cells were harvested and the levels of viral IE (ICP4, ICP27) and cell control (s15) mRNAs were assessed by qRT-PCR.
All experiments were performed as described in Liang et al., Sci. Transl. Med. 5, 167ra5 (2013). N-(3-(dimethylamino)propyl)-4-(8-hydroxyquinolin-6-yl)benzamide (designated ML324) has the following characteristics: N-(3-(dimethylamino)propyl)-4-(8-hydroxyquinolin-6-yl)benzamide (1). LC-MS: rt (min)=3.033; ^1H NMR (400 MHz, DMSO-d6) δ 1.84-1.98 (m, 2H), 2.79 (s, 3H), 2.80 (s, 3H), 3.12 (ddd, J=10.2 Hz, 5.4 Hz and 5.2 Hz, 2H), 3.37 (q, 2H), 7.50 (s, 1H), 7.66 (dd, J=8.2 Hz and 4.3 Hz, 1H), 7.84 (s, 1H), 7.88-7.94 (m, 2H), 7.96-8.02 (m, 2H), 8.50 (d, J=8.2 Hz, 1H), 8.71 (t, J=5.6 Hz, 1H), 8.90 (d, J=4.1 Hz, 1H), 9.34 (brs, 1H); HRMS (ESI) m/z (M+H)^+ C21H24N3O2, 350.1867. found 350.1863.

HSV-1 [5] = test: HSV-1 ICP4 protein levels in infected HeLa cells (quantitative western blot); type: cell-based; conditions: increasing concentrations of DMOG, HSV-1 0.1 PFU/cell 3 hrs, FIG. 6
Protocol: HSV-1 IE protein levels of ICP4 decrease in cells infected in the presence of DMOG. HeLa cells were infected with HSV-1 at 0.1 PFU/cell for 3 hrs in the presence of increasing concentrations of DMOG. Cells were harvested and the levels of viral IE proteins (ICP4 shown) were determined by quantitative western blot analyses. As the concentration of DMOG is increased, the levels of ICP4 decrease (FIG. 6).

CMV = CMV IE gene expression in HFF cells; type: cell-based; conditions: increasing concentration of DMOG, FIG. 9
From the text: CMV IE gene expression (IE1 and UL37) and control TBP (Tata binding Protein) in the presence of increasing concentrations of DMOG were also studied (FIG. 9). HFF were pretreated with the indicated concentration of DMOG for 3.5 hrs and infected with CMV for 4 hrs. Total RNA was extracted, reverse-transcribed, and cDNAs were quantitated by qPCR using primers to viral IE genes or control genes.

Compound: COC(=O)CNC(=O)C(=O)OC [DMOG, N-methoxyoxoacetyl-glycine methyl ester]
- repressive chromatin (H3K9me3, H3) on HSV-1 IE promoters (HSV-1 IE promoters): accumulation of repressive chromatin
- IE gene transcription in explanted latently infected sensory ganglia (HSV-1 [1]): repressed
- viral yield from explanted latently infected ganglia (HSV-1 [2]; 2 mM DMOG, 2 mM TCP or ACV, 48 hours, FIG. 11): decreases
- reduction of viral reactivation (viral yield) (HSV-1 [2]; 2 (unit uncertain), 48 hours explant, FIG. 19): ~1.5 log
- HSV-1 lytic viral yields (HSV-1 [3]): decrease
- mRNA levels of ICP4 and ICP27 (HSV-1 [4]; HSV-1 0.1 PFU/cell 3 hrs): decrease
- control mRNA (s15) level decrease (HSV-1 [4]): does not
- levels of ICP4 protein (HSV-1 [5]): decrease
- control mRNA (TBP) level decrease (CMV): does not
- CMV IE mRNA levels (IE1/IE7 and UL37) (CMV; HFF pretreated 3.5 hrs, CMV 4 hrs): decrease

From patent US8871789B2, “Method of preventing or treating viral infection” (The United States of America, as represented by the …, priority 2010, dated 2014)
